According to US8541457B2, “Aminothiazole derivatives as human stearoyl-CoA desaturase inhibitors” (Xenon Pharmaceuticals Inc., priority 2005, dated 2013):

Row | melting point [°C] | Structure (SMILES)
1 | 63 to 65 | Cc1nc(NC(=O)Cc2ccccc2)sc1C(=O)NCc1ccccc1 [Example 2.39, 4-Methyl-2-phenylacetylaminothiazole-5-carboxylic Acid Benzylamide]
2 | 224 to 226 | Cc1nc(NC(=O)c2cccnc2)sc1C(=O)NCc1ccccc1 [Example 2.27, N-(5-Benzylcarbamoyl-4-methylthiazol-2-yl)nicotinamide]
3 | 104 to 105 | Cc1nc(NC(=O)c2cc(Cl)cc(Cl)c2)sc1C(=O)NCc1ccccc1 [Example 2.24, 2-(3,5-Dichlorobenzoylamino)-4-methylthiazole-5-carboxylic Acid Benzylamide]
